For 13 compounds, Ki, Ratio Ki and Activity results are on record in ChEMBL document CHEMBL3763094, “Synthesis of 2-arylfuro[3,2-b]pyridines: Effect of the C2-aryl group on melatoninergic activity” (Eur J Med Chem, 2016).

As a reminder, the pKi is −log10 of the Ki, conventionally taken in molar units. Low values mean a large Ki, high ones a small Ki.

SMILES strings stand for the structures. pKi: −log10 of the molar value. Activity calls are given as the source filed them. The rule behind the calls is not given here.

The target of test [1] is T1, Melatonin receptor type 1A (Homo sapiens, UniProt P48039). The experiment in a line: Displacement of [125I]2-Iodomelatonin from human MT1 receptor expressed in HEK293 cells after 120 mins by radioligand competition assay. The class given is cell-based. In general terms: Loss of bound radioactivity is the signal in a displacement assay; it reports binding, not function.
T1 sequence (P48039 whole entry): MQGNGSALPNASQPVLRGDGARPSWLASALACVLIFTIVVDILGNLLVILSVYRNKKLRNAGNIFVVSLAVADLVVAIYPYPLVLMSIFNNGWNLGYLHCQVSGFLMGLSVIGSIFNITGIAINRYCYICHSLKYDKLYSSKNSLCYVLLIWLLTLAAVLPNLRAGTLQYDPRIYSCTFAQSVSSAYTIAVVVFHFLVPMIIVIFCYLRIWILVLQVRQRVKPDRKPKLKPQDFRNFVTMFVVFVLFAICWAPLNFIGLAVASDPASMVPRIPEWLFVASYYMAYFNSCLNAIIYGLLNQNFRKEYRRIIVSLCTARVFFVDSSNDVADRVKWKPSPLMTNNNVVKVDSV

For test [2], the target named is T2, Melatonin receptor type 1B (Homo sapiens, UniProt P49286).
T2 sequence (P49286 whole entry): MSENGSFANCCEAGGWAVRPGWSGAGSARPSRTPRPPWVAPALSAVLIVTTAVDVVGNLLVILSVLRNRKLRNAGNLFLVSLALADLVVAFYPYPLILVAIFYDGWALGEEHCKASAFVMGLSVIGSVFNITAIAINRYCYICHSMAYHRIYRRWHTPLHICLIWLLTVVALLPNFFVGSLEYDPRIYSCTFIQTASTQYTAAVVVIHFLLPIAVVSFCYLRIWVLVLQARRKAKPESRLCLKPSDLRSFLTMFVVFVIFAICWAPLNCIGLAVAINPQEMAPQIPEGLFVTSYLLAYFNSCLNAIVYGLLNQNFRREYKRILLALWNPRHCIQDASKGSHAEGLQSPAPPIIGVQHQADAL
Briefly: Displacement of [125I]2-Iodomelatonin from human MT2 receptor expressed in HEK293 cells after 120 mins by radioligand competition assay. In kind it is cell-based.

For another test, the species on record is Homo sapiens. Briefly: Selectivity ratio of Ki for human MT1 receptor to Ki for human MT2 receptor.
For test [3], the target named is T1, Melatonin receptor type 1A. Briefly: Agonist activity at MT1 receptor (unknown origin) expressed in CHO cells incubated for 1 hr by [35S]GTPgammaS binding assay. The class given is functional, cell-based. A general note: GTPγS resists hydrolysis and so accumulates on activated G proteins.
The target of test [4] is T3, Melatonin receptor type 1B (Homo sapiens) (UniProt P49286).
T3 sequence (whole entry): T2 sequence (P49286 whole entry)
The experiment in a line: Antagonist activity at MT2 receptor (unknown origin) expressed in CHO cells assessed as inhibition of melatonin-induced response for 30 mins by [35S]GTPgammaS binding assay. In kind it is functional, cell-based.

Test [5] deals with T3, Melatonin receptor type 1B (Homo sapiens). Briefly: Agonist activity at MT2 receptor (unknown origin) expressed in CHO cells incubated for 1 hr by [35S]GTPgammaS binding assay. In kind it is functional, cell-based.
Test [6] has as its target T1, Melatonin receptor type 1A. The experiment in a line: Partial agonist activity at MT1 receptor (unknown origin) expressed in CHO cells incubated for 1 hr by [35S]GTPgammaS binding assay. The class given is functional, cell-based.
Test [7] addresses T1, Melatonin receptor type 1A. The experiment in a line: Antagonist activity at MT1 receptor (unknown origin) expressed in CHO cells assessed as inhibition of melatonin-induced response for 30 mins by [35S]GTPgammaS binding assay. The class given is functional, cell-based.
In test [8] the target is T3, Melatonin receptor type 1B (Homo sapiens). The experiment in a line: Partial agonist activity at MT2 receptor (unknown origin) expressed in CHO cells incubated for 1 hr by [35S]GTPgammaS binding assay. The class given is functional, cell-based.

Consider `COc1cc2c(CCNC(C)=O)c[nH]c2cn1`, for which the values for the pKi in [1] and in [2] were 8.02 and 7.46, respectively. Further, the Ratio Ki in the test filed under Homo sapiens was found to be 0.3.

On to `COc1ccc2oc(-c3ccc4ccccc4c3)c(CCNC(C)=O)c2n1`, for which the result in test [3] and in test [4] was Active. In addition, the pKi in test [1] was 8.66; in test [2], 10.05. Moreover, the Ratio Ki in the test listed under Homo sapiens was 22.2.

`COc1ccc2oc(I)c(CCNC(C)=O)c2n1`: the outcome in test [3] and in test [5] was Active. Besides, the results for the pKi in test [1] and in [2] were 9.70 and 10.10, respectively. The Ratio Ki in the test filed under Homo sapiens was found to be 2.5.

Regarding `COc1ccc2oc(-c3cc4ccccc4c4ccccc34)c(CCNC(C)=O)c2n1`, the pKi is 7.17 in [1] and 8.30 in test [2]. Besides, the Ratio Ki in the test filed under Homo sapiens came out at 13.6. The result in test [4] and in test [6] was Active.

`COc1cc2c(CCNC(C)=O)coc2cn1`: the figures for the pKi in test [1] and in [2] were 7.14 and 7.23, respectively. In the test listed under Homo sapiens, the Ratio Ki was 1.2.

In the case of `COc1ccc2occ(CCNC(C)=O)c2n1`, the outcome in test [3] and in test [5] was Active. For the same compound, the pKi is 8.80 in test [1] and 8.92 in [2]. Besides, the Ratio Ki in the test filed under Homo sapiens stood at 1.5.

In the case of `COc1ccc2[nH]cc(CCNC(C)=O)c2n1`, the Ratio Ki in the test filed under Homo sapiens amounted to 0.7.

As for `COc1ccc2oc(-c3ccccc3)c(CCNC(C)=O)c2n1`, the outcome in test [3] and in test [5] was Active. For the same compound, the figures for the pKi in [1] and in test [2] were 10.40 and 9.85, respectively. In addition, the Ratio Ki in the test listed under Homo sapiens was 0.3.

On to `COc1ccc2oc(-c3c4ccccc4cc4ccccc34)c(CCNC(C)=O)c2n1`, for which the pKi is 7.51 in [1] and 8.30 in test [2]. Moreover, the Ratio Ki in the test filed under Homo sapiens amounted to 6.2. For the same compound, the result in test [4] and in [6] was Active.

Take `COc1ccc2oc(-c3ccc(F)cc3)c(CCNC(C)=O)c2n1`: the outcome in test [3] and in [5] was Active. Besides, the pKi is 9.70 in test [1] and 10.52 in test [2]. Further, the Ratio Ki in the test listed under Homo sapiens was found to be 6.7.

For `CCC(=O)NCCCc1cc(OC)ccc1OCc1cccc(OC)c1`, the Ratio Ki in the test listed under Homo sapiens was determined as 790.

`COc1ccc2oc(-c3cccc4ccccc34)c(CCNC(C)=O)c2n1`: the values for the pKi in test [1] and in test [2] were 6.70 and 8.89, respectively. For the same compound, the Ratio Ki in the test filed under Homo sapiens is 152. In addition, the result in [7] and in [4] was Active.

Consider `COc1ccc2oc(-c3c(C)cccc3C)c(CCNC(C)=O)c2n1`, for which the pKi is 6.92 in [1] and 8.05 in test [2]. In addition, the Ratio Ki in the test filed under Homo sapiens came out at 13.3. Also, the result in [7] and in test [8] was Active.
